Where “and” joins values, the source holds several entries; their conditions need not be identical. Identical values can stand only once. Where no end group is shown, it is not given here.
Tests used:
[1] = system: Pseudomonas aeruginosa (PA); experiment: Broth microdilution anti-bacterial assay (CLSI), Pseudomonas aeruginosa; format: cell-based, Pseudomonas aeruginosa (ATCC 14213); conditions: PA; for MIC: overnight, 37° C., ≥99% inhibition; for MBC: ≥99% killing
[2] = system: Pseudomonas aeruginosa (PA); experiment: Time-kill assay, Pseudomonas aeruginosa; format: cell-based; conditions: for time to kill PA (in words): 1X MBC; for Time kill PA, >99% killing: at 1X MBC, * indicates killing within seconds
Procedure: The bactericidal abilities of the variant peptides are not only effective, but also fast-acting. […] The killing kinetics are detailed in Table 11 below.
Pseudomonas aeruginosa (PA) and Staphylococcus aureus (SA) strains were grown as per CLSI guidelines. AMPs were added to the bacterial cultures at their 1X MBC concentrations. Upon treatment, the bacterial cultures were enumerated for viable counts immediately within 1 min, 5 min, 15 min, 30 min and 60 min post-treatments.

[3] = system: Pseudomonas aeruginosa (PA); experiment: Live-dead staining of bacteria (membrane damage); format: cell-based, Pseudomonas aeruginosa (ATCC 14213)
Procedure: FIG. 2 verifies the effects of exemplary variant peptides in disrupting bacterial membranes. To test whether exemplary peptide E1AM2 causes membrane damage in bacteria, live and dead staining of exemplary bacteria strain Pseudomonas aeruginosa (ATCC 14213, PA) are performed in the presence of different concentrations of E1AM2 peptide. […] Scale bar-3 μm. The lesser number of PA cells observed upon E1AM2 treatment at these concentrations is due to leaking of the bacteria caused by membrane disruption. Thus, peptide variants with the cationic arm show bacterial membrane disrupting ability. FIG. 2B provides a quantification of Syto-9 and PI-positive Pseudomonas aeruginosa (PA) cells 24 hours post E1AM2 treatment.
Scale bar=3 μm. […] The percentage of PA cells with (PI-positive, red) and without (Syto-9 stained, green) membrane damage following E1AM2 V8LQ19L peptide treatment are shown.
PA was treated with E1AM2 for 24 hours followed by live-dead saining in accordance to the manufacturers' instruction (LIVE/DEAD™ BacLight™ Bacterial Viability Kit, for microscopy & quantitative assays).

[4] = system: Pseudomonas aeruginosa (PA); experiment: Antimicrobial resistance evolution assay, PA; format: cell-based; conditions: for development of antimicrobial resistance, PA: serial passaging, 28 days, resistance = >4-fold MIC change
Description: The development of antimicrobial resistance is defined by greater than a 4-fold change to their initial minimum inhibitory concentration (MIC) at day 1. Exemplary bacteria strains Pseudomonas aeruginosa (PA) and Staphylococcus aureus (SA) are subjected to continuous daily serial passaging over several days, with treatment of exemplary variant peptides E1AM2 (SEQ ID NO: 2) and Q19L (SEQ ID NO: […]) at subinhibitory concentrations. […] The treatments were discontinued when the MIC increased by more than four-fold from the initial MIC or when MIC reached >100 μM.
Briefly, sequential passaging of PA, and SA cells was done with sub-inhibitory concentrations of antibiotics or E1AM2 up to 4 weeks. The cells grown in those concentrations of antibiotics or peptides were diluted to A600 nm (OD600) of ~0.2 and serially passaged daily with the same concentrations at 37° C. with agitation at 24 h intervals.

bacteria = experiment: Comparison of wild-type peptide E1A to V8LQ19L (Table 14)
Description: Active peptide sequences based on ENO3 exerting significant bactericidal antibiofilm properties, and relevant to chronic wound healing are previously disclosed. The previously disclosed antimicrobial peptides (AMPs) are longer (>22-residues) in length, which would be more costly in production.

[5] = system: mixed bacterial infection (PA, SA and ST); experiment: Broth microdilution, mixed bacterial infection; format: cell-based; conditions: mixed infection
Procedure: Chronic wounds mostly present mixed infections where numerous pathogens colonize together.
(§1) Examination of the potency of modified short peptides against PA and SA strains was performed by using the broth microdilution protocol from the Clinical and Laboratory Standards Institute (CLSI) guidelines (CLSI 2012) as described. Briefly, five freshly plated bacteria colonies were grown in cation adjusted MH2 broth (BD Biosciences) in a shaker incubator at 37° C., 220 RPM. Cells were grown to an optical density (OD600) of ~0.2 measured using a Microplate Spectrophotometer (Molecular Devices Spectra Max Plus). 100 μL of microbial culture containing ~5×10^5 CFU/mL of bacteria in the respective broths were introduced into each well containing 100 μL of peptides and incubated overnight at 37° C. Next, to check the bactericidal effects, 100 μL from each well was transferred and spread on sterile MH2 agar plates. The plates were incubated overnight at 37° C. and the number of colonies forming units (CFU) were calculated the following day. Readings of bacteria grown in media without any treatments were normalized to 100% as media control. For the mixed infection study, three freshly plated bacteria colonies each from PA, SA and ST plates were grown together in cation adjusted MH2 broth and proceeded as described above.

[6] = system: Pseudomonas aeruginosa PA BAA-2110; experiment: Broth microdilution, PA BAA-2110 (lung infection in cystic fibrosis); format: cell-based, Pseudomonas aeruginosa (BAA-2110); conditions: PA BAA-2110
Procedure: Bacteria strains involved in lung infection in cystic fibrosis patients (PA-BAA 2110) and ear-eye infections (PA-CRM 9027) are treated with exemplary variant peptides, such as E1AM2 and Q19L.
as §1

Substance	MIC [1] [µM]	MIC ([1]; listed as VBLQ19L) [µM]	MBC [1] [µM]	MBC ([1]; listed as VBLQ19L)	time to kill PA (in words) [2]	Time kill PA, >99% killing [2]	mechanism of bacterial killing (live/dead) ([3]; FIG. 12)	AMR prevention / resistance induction ([4]; Table 15: in PA and SA, bacteria not named)	development of antimicrobial resistance, PA [4]	Cationicity (bacteria)	Mechanism of killing bacteria (bacteria)	MIC/MBC (bacteria; bacteria not named in Table 14) [µM]	MBC [5] [µM]	MBC [6] [µM]	MIC [6] [µM]	incorporation of propidium iodide (PI), membrane damage ([3]; at 1× MIC (3.125 μM) and 1X MBC (6.25 μM), 24 h) [%]
KKLLKKWLKLSKKALKLALSL-NH2 [V8LQ19L]	1.56	1.58	1.56	1.58 µM and 1.56 µM	within seconds	1* min	primarily through membrane damage	Prevent AMR	effective in preventing the acquisition of AMR	Cationic (bacterial membrane	Membrane disintegration	1.56	–	–	–	–
E1AM2: untagged (E1AM2), KKLLKKWVKLSKKALKLAQSL	–	–	–	–	within minutes	1 min	–	–	prevented resistance acquisition	–	–	–	6.25	6.25	3.125	100

— patent US20260327263A1, “Anti-Bacterial Peptides” (priority 2023, published 2026)
